Here are results for five compounds from ChEMBL document CHEMBL3785054, “Identification of inhibitors for vascular endothelial growth factor receptor by using dynamic combinatorial chemistry” (Bioorg Med Chem Lett, 2016).

A short description of test [1]: Cytotoxicity against human […] cells by MTT assay. The class given is functional, cell-based.
The subject of test [2] is A549. Kind of test: Cytotoxicity against human A549 cells by MTT assay. The class given is functional, cell-based. (In general: Tetrazolium assays rely on reduction of a dye to a coloured formazan, in cell work by metabolically active cells.)
The nature of test [3]: Cytotoxicity against human PC3 cells by MTT assay. To be noted: PC-3. The class given is functional, cell-based.
Test [4] relates to MDA-MB-435. Briefly: Cytotoxicity against human MDA-MB-435 cells by MTT assay. The class given is functional, cell-based.
For test [5], the system named is HT-29. Kind of test: Cytotoxicity against human HT-29 cells by MTT assay. The class given is functional, cell-based.
Test [6] in a line: Cytotoxicity against human BGC823 cells by MTT assay. The class given is functional, cell-based. To be noted: BGC-823.
The subject of test [7] is Chorioallantoic membrane. Kind of test: Antiangiogenic activity in chicken chorioallantoic membrane assessed as inhibition of vascular branch formation after 3 days. The class given is functional. Conditions: Gallus gallus.

Molecules are shown by their SMILES. The source made the active and inactive calls. No cut-off for these calls is given here. Some results are limits rather than exact numbers.

By IC50 is commonly meant the concentration that inhibits the measured activity by half. For the compound `CC1CC(=O)NN=C1c1ccc(NC(=O)Nc2ccc3c(/C=N/c4nccs4)n[nH]c3c2)cc1` (stereo unspecified), the IC50 in test [1] came out at 11.2 µM; in test [2], 8.9 µM; in test [3], 5.6 µM; in test [4], 22.7 µM; in test [5], 12.8 µM; in test [6], 78 µM.

The inhibition is the share of the control response that was lost under treatment. As for `O=C(Nc1ccc2c(/C=N/c3ncccn3)n[nH]c2c1)Nc1nccs1`, the IC50 in test [1] stood at 15.4 µM; in test [2], 19.6 µM; in test [3], 6.8 µM; in test [4] it was 55.2 µM; in test [5] it was 78.6 µM; in test [6], 12.8 µM. Also, the inhibition in test [7] (dose or concentration not given here) is 51.6%.

Turning to `O=C(Nc1ccc2c(/C=N/c3ccccn3)n[nH]c2c1)Nc1nncs1`, the half-inhibitory concentration (IC50) in test [1] is > 100 µM; in test [2] it was 56.4 µM; in test [3] it was > 100 µM; in test [4], 4.8 µM; in test [5], 9.4 µM; in test [6], > 100 µM. The inhibition entry in test [7] was “Active”.

With `CCN(CC)CCNC(=O)c1c(C)[nH]c(/C=C2\C(=O)Nc3ccc(F)cc32)c1C` [SUNITINIB], the half-maximal inhibitory concentration (IC50) worked out at 9.1 µM in test [2], 55.6 µM in test [3], 9.3 µM in test [4] and 1.7 µM in test [5].

For the compound `O=C(Nc1ccc2c(/C=N/c3cccnc3)n[nH]c2c1)Nc1nncs1`, the IC50 is > 100 µM in test [1]; 2.4 µM in test [2]; 7.8 µM in test [3]; 55.6 µM in test [4]; 12.1 µM in test [5]; 67.2 µM in test [6]. Besides, the inhibition entry in test [7] is “Active”.
